This note sets out measurements from patent publication US20230014447A1 (priority 2019, published 2023).

≈ marks a conversion by molar mass, not a printed value. Read-outs that look alike come from different tables or passages of the source. Marks after values point to notes of the source that are not given here.

This experiment relates to Legionella pneumophila MMX 7515. Kind of experiment: microbe, parasite or virus in culture. Type of experiment: cell-based. The conditions noted are these: for MIC: Legionella pneumophila.
The mark [1] stands for this setting: MMX7515, 24 h, read-out: MIC (in vitro activity).
The mark [2] stands for this setting: MMX7515, 48 h, read-out: MIC (in vitro activity).

Turning to `C=C(C)C1CCC(C)=CC1c1c(O)cc(CCCCC)cc1O` (centres unmarked) [CBD, 2-[3-methyl-6-(1-methylethenyl)-2-cyclohexen-1-yl]-5-pentyl-1,3-benzenediol], the MIC under setting [1] came out at 1 µg/mL (≈ 3.18 µM); the MIC under setting [2] amounted to 1 µg/mL (≈ 3.18 µM); the MIC (MMX7515, read-out: MIC values) was 1 µg/mL (≈ 3.18 µM).
In the case of `C[C@H]1COc2c(N3CCN(C)CC3)c(F)cc3c(=O)c(C(=O)O)cn1c23` [LVX, levofloxacin], the MIC by setting is: under setting [1], 0.5 µg/mL (≈ 1.38 µM); under setting [2], 0.5 µg/mL (≈ 1.38 µM).
Consider `C[C@@H](O)[C@H]1C(=O)N2C(C(=O)O)=C(S[C@@H]3CN[C@H](C(=O)N(C)C)C3)[C@H](C)[C@H]12` [MEM, meropenem], for which the MIC under setting [1] was found to be 0.25 µg/mL (≈ 0.652 µM) and the MIC under setting [2] came out at 0.5 µg/mL (≈ 1.3 µM).
For `CN[C@H](CC(C)C)C(=O)N[C@H]1C(=O)N[C@@H](CC(N)=O)C(=O)N[C@H]2C(=O)N[C@H]3C(=O)N[C@H](C(=O)N[C@H](C(=O)O)c4cc(O)cc(O)c4-c4cc3ccc4O)[C@H](O)c3ccc(c(Cl)c3)Oc3cc2cc(c3O[C@@H]2O[C@H](CO)[C@@H](O)[C@H](O)[C@H]2O[C@H]2C[C@](C)(N)[C@H](O)[C@H](C)O2)Oc2ccc(cc2Cl)[C@H]1O` [VAN, vancomycin], in that order: 0.12 µg/mL (≈ 0.0828 µM) and 0.25 µg/mL (≈ 0.173 µM).
As to gentamicin, the “MIC (in vitro activity)” value was 2** μg/mL (L. pneumophila MMX 7515, plate read at 48 hr) and 1* μg/mL (Legionella pneumophila MMX 7515, plate read at 24 hr).
